Biological target: Human immunodeficiency virus type 1 protease (Human immunodeficiency virus 1, UniProt Q72874)
Assay: In vitro inhibitory activity against HIV-1 protease(PR).

Row | SMILES | IC50 [nM]
1 | O=c1cc(-c2cccc(C(F)(F)F)c2)oc(O)c1SCc1ccccc1 | 600
2 | O=c1cc(-c2ccc3c(c2)OCCO3)oc(O)c1SCc1ccccc1 | 790
3 | CCc1cccc(-c2cc(O)c(SCc3ccccc3)c(=O)o2)c1 | 2040
4 | Cc1cc(-c2cc(O)c(SCc3ccccc3)c(=O)o2)cc(C)c1O | 250
5 | O=c1cc(-c2ccccc2)oc(O)c1SCc1ccccc1 | 1700
6 | COc1ccc(-c2cc(O)c(SCc3ccccc3)c(=O)o2)cc1 | 1630
7 | Cc1ccccc1-c1cc(O)c(SCc2ccccc2)c(=O)o1 | 14200
8 | O=c1cc(-c2cccc(Cl)c2)oc(O)c1SCc1ccccc1 | 690
9 | O=C(OC1CCCCC1)c1ccccc1CSc1c(O)oc(-c2ccccc2)cc1=O | 1200
10 | COc1cccc(-c2cc(O)c(SCc3ccccc3)c(=O)o2)c1 | 990
11 | Cc1ccc(CSc2c(O)cc(-c3ccccc3)oc2=O)cc1 | 4580
12 | O=C(OC1CCCC1)c1ccccc1CSc1c(O)oc(-c2ccccc2)cc1=O | 50
13 | O=c1cc(-c2ccccc2)oc(O)c1SCc1ccc2c(c1)OCCO2 | 3420
14 | COC(=O)c1ccc(-c2cc(O)c(SCc3ccccc3)c(=O)o2)cc1 | > 100000
15 | O=c1cc(-c2cc(C(F)(F)F)cc(C(F)(F)F)c2)oc(O)c1SCc1ccccc1 | 630
16 | Cc1ccc(-c2cc(O)c(SCc3ccccc3)c(=O)o2)cc1 | 12300
17 | O=c1cc(-c2ccccc2Cl)oc(O)c1SCc1ccccc1 | 2540
18 | Cc1cccc(-c2cc(O)c(SCc3ccccc3)c(=O)o2)c1 | 860
19 | COc1ccc(-c2cc(O)c(SCc3ccccc3)c(=O)o2)cc1C | 740
20 | O=c1cc(-c2cccc(OC(F)(F)F)c2)oc(O)c1SCc1ccccc1 | 2140
21 | O=c1cc(-c2ccc(O)cc2)oc(O)c1SCc1ccccc1 | 690
22 | O=c1cc(-c2ccccc2O)oc(O)c1SCc1ccccc1 | 6000
23 | COC(=O)c1ccc(CSc2c(O)cc(-c3ccccc3)oc2=O)cc1 | > 10000
24 | O=c1cc(-c2cccc(O)c2)oc(O)c1SCc1ccccc1 | 1190
25 | Cc1cc(C)cc(-c2cc(O)c(SCc3ccccc3)c(=O)o2)c1 | 260

Continued, values first:

Row | IC50 [nM] | SMILES
26 | 1000 | COC(=O)c1ccccc1CSc1c(O)cc(-c2ccccc2)oc1=O
27 | 24800 | O=C(O)c1ccccc1CSc1c(O)cc(-c2ccccc2)oc1=O
28 | 10200 | O=C(O)c1ccc(CSc2c(O)cc(-c3ccccc3)oc2=O)cc1
29 | 19300 | COC(=O)c1cccc(CSc2c(O)cc(-c3ccccc3)oc2=O)c1
30 | 8540 | Cc1cccc(CSc2c(O)cc(-c3ccccc3)oc2=O)c1
31 | 5370 | Cc1ccccc1CSc1c(O)cc(-c2ccccc2)oc1=O
32 | 34 | CC(C)OC(=O)c1ccccc1CSc1c(O)cc(-c2ccccc2)oc1=O
33 | 6150 | O=C(O)c1cccc(CSc2c(O)cc(-c3ccccc3)oc2=O)c1
34 | 619 | CC(C)COC(=O)c1ccccc1CSc1c(O)cc(-c2ccccc2)oc1=O
35 | 360 | O=C(O)c1ccc(-c2cc(O)c(SCc3ccccc3)c(=O)o2)cc1
36 | 190 | CC(C)(C)NC(=O)c1ccccc1CSc1c(O)cc(-c2ccccc2)oc1=O
